Laboratory results as given in article PMC2920546, “Preclinical Pharmacology of BA-TPQ, a Novel Synthetic Iminoquinone Anticancer Agent” (Marine Drugs, 2010).

How the values were obtained:
[1] = Stability of BA-TPQ in mouse plasma; assay type: in vitro ADME; conditions: for Amount Remaining: mouse plasma
Experimental: The stability of BA-TPQ was evaluated at two concentrations (0.5 and 5.0 μM). The compound was incubated under the following conditions: 37 °C for 0, 1, 2, 4, and 8 h; 4 °C for 0, 1, 4, 8, and 24 h; and −80 °C for 0, 1, 2, and 4 weeks. At the designated time points, the samples were extracted and analyzed using the established HPLC analytical method. The stability of the iminoquinone was assessed by comparing the initial concentration (time 0) with the final concentration following incubation of the compound at the noted temperatures, and expressing this difference as a percentage of the initial concentration.

[2] = tested on: breast and prostate xenograft tumors; conditions: cited from earlier work
[3] = tested on: prostate and breast cancer cell lines; design: method as in PMID 19274441, PMID 19936915; conditions: cell lines with varying p53 status; cited from earlier work
[4] = Pharmacokinetics and tissue distribution in CD-1 mice; assay type: in vivo
Experimental: Female ICR/CD-1 (18–20 g) mice were purchased from Harlan Laboratories (Indianapolis, IN), and female nude mice (nu/nu; 4–6 weeks) were purchased from Frederick Cancer Research and Development Center (Frederick, MD). All animal use and care procedures were approved by the Institutional Animal Care and Use Committee (IACUC) of the University of Alabama at Birmingham. All animals were fed with commercial diet and water ad libitum and were on an alternating 12 h light/dark cycle.
CD-1 and nude mice were randomly divided into groups of three, and were dosed either intravenously (5 mg/kg) or intraperitoneally (10 mg/kg) with BA-TPQ in PEG 400:ethanol:0.9% saline (57.1%:14.3%:28.6%). Before dosing, and at 5, 15, 30, 60 min, and 2, 4, 8, and 24 h after dosing, groups of animals (three/time point) were anesthetized, and blood was collected from the retro-orbital sinus into heparinized tubes. Plasma was obtained by centrifuging the blood samples at 14,000 rpm for 15 min. BA-TPQ was then extracted from plasma and stored at −80 °C. The brain, heart, kidneys, liver, lungs, and spleen were also collected at the same time points during necropsy, blotted on Whatman No. 1 filter paper, trimmed of extraneous fat and connective tissue, weighed, and homogenized in phosphate-buffered saline. The resulting homogenates were stored at −80 °C until further processing and analysis. Urine and feces were collected for 24 hr from mice housed in metabolic cages. After collection, the cages were also washed twice with 200 μL PBS, and the washes were collected and analyzed separately. The total urine was determined as the amount from the urine plus washes 1 and 2. Feces were homogenized in PBS, then extracted using the same procedure used for tissues.
Six hundred microliters of acetonitrile was added to 200 μL of plasma, urine, cage washes (first and second), or tissue/feces homogenate in an Eppendorf tube to precipitate proteins. After centrifugation at 14,000 rpm for 10 min, the supernatant was transferred to a glass tube and evaporated to dryness using a TurboVap® LV Concentration Workstation (Caliper Lifesciences, Hopkinton, MA). The residue was reconstituted with 500 μL ethyl acetate, sonicated for 10 min, and vortexed for 10 sec. Samples were then centrifuged again and the resulting supernatant was transferred to a new glass tube and evaporated to dryness. Finally, samples were reconstituted in 100 μL mobile phase, and 50 μL was injected into the HPLC system for analysis.
The averages of the BA-TPQ concentration in plasma and tissues following intravenous and intraperitoneal administration to three animals per time point were used for pharmacokinetic analyses using a two-compartmental model and a non-compartment model, respectively. The following pharmacokinetic parameters were estimated using Phoenix WinNonlin 6.0 (Mountain View, CA): area under the concentration-time curve (AUC, h·μg/mL), half-life (T½, h), maximum concentration (Cmax, μg/mL), time of the maximum concentration (Tmax, h), and clearance (CL, mL/h/kg), as applicable. Bioavailability (X) was calculated as X= [AUCip × doseiv]/[AUCiv × doseip].

[5] = female, ICR/CD-1, mouse, liver, IV 5 mg/kg
[6] = female, ICR/CD-1, mouse, lungs, IP 10 mg/kg
[7] = female, ICR/CD-1, mouse, lungs, IV 5 mg/kg
[8] = female, mouse, brain, IP 10 mg/kg
[9] = female, mouse, brain, IV 5 mg/kg
[10] = female, mouse, heart, IP 10 mg/kg
[11] = female, mouse, heart, IV 5 mg/kg
[12] = female, mouse, kidneys, IP 10 mg/kg
[13] = female, mouse, kidneys, IV 5 mg/kg
[14] = female, mouse, liver, IP 10 mg/kg
[15] = female, mouse, lungs, IV 5 mg/kg
[16] = female, mouse, plasma, IP 10 mg/kg
[17] = female, mouse, plasma, IV 5 mg/kg
[18] = female, mouse, spleen, IP 10 mg/kg
[19] = female, mouse, spleen, IV 5 mg/kg

For O=C1C(NCc2ccccc2)=CC2=NCCc3c[nH]c1c32 [BA-TPQ, 7-(benzylamino)-1,3,4,8-tetrahydropyrrolo[4,3,2-de]quinolin-8(1H)-one], the “Stability in mouse plasma (in words)” value ([1]; 37 °C, 4 °C and −80 °C, 0.5 μM and 5.0 μM) was “very stable”, the “Amount Remaining” value ([1]; 4 °C, 24 hr, 0.5 μM) was 94% and the “Amount Remaining” value ([1]; 4 °C, 24 hr, 5.0 μM) was 117%. The “Amount Remaining” value ([1]; 37 °C, 8 hr, 0.5 μM) was 92%, the “Amount Remaining” value ([1]; 37 °C, 8 hr, 5.0 μM) was 114% and the “Amount Remaining” value ([1]; −80 °C, 4 weeks, 0.5 μM) was 95%. The “Amount Remaining” value ([1]; −80 °C, 4 weeks, 5.0 μM) was 100%, the “Death in mice on repeated dosing” value ([2]; 10 mg/kg, three times per week for up to six weeks) was “does not cause death” and the “Toxicity in mice (weight loss)” value ([2]; especially at 10 mg/kg, 3 days/week for several weeks) was “systemic toxicity”. For the same compound, the “Tumor growth in mouse xenograft models” value ([2]; prostate and breast cancer xenografts) was “inhibit tumor growth”, the “In vitro growth of prostate and breast cancer cell lines” value [3] was “inhibit in vitro growth” and the “Time of greatest plasma concentration” value ([4]; IP 10 mg/kg) was 15 min. The Cl ([4]; brain, IP 10 mg/kg) was 2920 mL/min/kg, the AUC [4, 5] was 650 ng·h/mL and the Cmax [4, 5] was 690 ng/mL. The clearance [4, 5] was 900 mL/min/kg, the half-life [4, 5] was 39 min and the AUC [4, 6] was 9150 ng·h/mL. For the same compound, the Cmax [4, 6] was 12400 ng/mL, the Tmax [4, 6] was 4.8 min and the half-life [4, 6] was 30 min. It also gave an AUC [4, 7] of 4980 ng·h/mL, a clearance [4, 7] of 117 mL/min/kg and an AUC [4, 8] of 190 ng·h/mL. For the same compound, the Cmax [4, 8] was 180 ng/mL, the Tmax [4, 8] was 15 min and the half-life [4, 8] was 49.8 min. It also gave an AUC [4, 9] of 220 ng·h/mL, a Cmax [4, 9] of 750 ng/mL and a clearance [4, 9] of 2630 mL/min/kg. The half-life [4, 9] was 12.6 min, the AUC [4, 10] was 4660 ng·h/mL and the Cmax [4, 10] was 7240 ng/mL. It also gave a Tmax [4, 10] of 4.8 min, a half-life [4, 10] of 42.6 min and an AUC [4, 11] of 1020 ng·h/mL. It also gave a Cmax [4, 11] of 5340 ng/mL, a clearance [4, 11] of 567 mL/min/kg and a half-life [4, 11] of 7.8 min. For the same compound, the AUC [4, 12] was 8060 ng·h/mL, the Cmax [4, 12] was 8360 ng/mL and the Tmax [4, 12] was 15 min. For the same compound, the half-life [4, 12] was 28.8 min, the AUC [4, 13] was 2830 ng·h/mL and the Cmax [4, 13] was 9680 ng/mL. It also gave a clearance [4, 13] of 200 mL/min/kg, a half-life [4, 13] of 12 min and an AUC [4, 14] of 150 ng·h/mL. The Cmax [4, 14] was 470 ng/mL, the Tmax [4, 14] was 4.8 min and the half-life [4, 14] was 14.4 min. For the same compound, the Cmax [4, 15] was 13000 ng/mL, the half-life [4, 15] was 15.6 min and the AUC [4, 16] was 110 ng·h/mL. It also gave a Cmax [4, 16] of 110 ng/mL, a Tmax [4, 16] of 4.8 min and a half-life [4, 16] of 51.6 min. For the same compound, the bioavailability ([4]; female, mouse, plasma, IP 10 mg/kg vs IV 5 mg/kg, read-out: Intraperitoneal bioavailability) was 74%, the AUC [4, 17] was 70 ng·h/mL and the Cmax [4, 17] was 360 ng/mL. The clearance [4, 17] was 8200 mL/min/kg, the half-life [4, 17] was 8.4 min and the AUC [4, 18] was 11300 ng·h/mL. The Cmax [4, 18] was 23000 ng/mL, the Tmax [4, 18] was 4.8 min and the half-life [4, 18] was 24.6 min. For the same compound, the AUC [4, 19] was 1800 ng·h/mL, the Cmax [4, 19] was 4590 ng/mL and the clearance [4, 19] was 317 mL/min/kg. The half-life [4, 19] was 16.2 min, the Cl ([4]; heart, IP 10 mg/kg) was 130 mL/min/kg and the Cl ([4]; kidneys, IP 10 mg/kg) was 67 mL/min/kg. It also gave a Cl ([4]; liver, IP 10 mg/kg) of 4100 mL/min/kg, a Cl ([4]; lungs, IP 10 mg/kg) of 67 mL/min/kg and a Cl ([4]; plasma, IP 10 mg/kg) of 5750 mL/min/kg. For the same compound, the “Concentration in the plasma for the first 30 minutes” value ([4]; single bolus IV 5 mg/kg) was “up to 0.18 μg/mL” and the Cl ([4]; spleen, IP 10 mg/kg) was 50 mL/min/kg.
